Measured values taken from patent publication US8946212B2, “Annelated N-heterocyclic sulfonamides with oxadiazolone headgroup, processes for their preparation and their use as pharmaceuticals” (Sanofi-Aventis, priority 2008, dated 2015).
Read-outs that look alike come from different tables or passages of the source. Blank lines part the entries; values can stand above or below the molecule they belong to.

Tests used:
human PPARdelta = target: T1, human PPARdelta (Homo sapiens, UniProt Q03181); assay: Cellular PPARdelta assay (HEK reporter cell line, luciferase); type: cell-based; details: PPARdelta reporter cell line (HEK, GR-GAL4-humanPPARdelta-LBD)
T1 construct: human PPARdelta receptor (amino acids S139-Y441); expressed in transfected cells; host or cells: HEK (human embryo kidney) cells, stably transfected; plasmid pcDNA3
T1 sequence (Q03181 139-441): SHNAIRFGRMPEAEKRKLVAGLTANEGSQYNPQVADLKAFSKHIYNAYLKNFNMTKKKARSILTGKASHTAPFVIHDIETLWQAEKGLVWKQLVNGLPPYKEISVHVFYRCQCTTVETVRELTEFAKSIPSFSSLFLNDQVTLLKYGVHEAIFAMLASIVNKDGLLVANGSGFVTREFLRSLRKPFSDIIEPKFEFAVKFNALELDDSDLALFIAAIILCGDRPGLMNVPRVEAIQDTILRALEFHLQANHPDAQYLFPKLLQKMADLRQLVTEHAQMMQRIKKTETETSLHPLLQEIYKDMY
Method: The potency of substances which bind to human PPARdelta and activate it in an agonistic manner is analyzed using a stably transfected HEK cell line (HEK=human embryo kidney) which is referred to here as PPARdelta reporter cell line. In analogy to the assay described for PPARalpha, the PPARdelta reporter cell line also contains two genetic elements, a luciferase reporter element (pdeltaM-GAL4-Luc-Zeo) and a PPARdelta fusion protein (GR-GAL4-humanPPARdelta-LBD) which mediates expression of the luciferase reporter element depending on a PPARdelta ligand. The stably and constitutively expressed fusion protein GR-GAL4-humanPPARdelta-LBD binds in the cell nucleus of the PPARdelta reporter cell line via the GAL4 protein portion to the GAL4 DNA binding motifs 5″-upstream of the luciferase reporter element which is stably integrated in the genome of the cell line. There is only little expression of the luciferase reporter gene in the absence of a PPARdelta ligand if fatty acid-depleted fetal calf serum (cs-FCS) is used in the assay. PPARdelta ligands bind and activate the PPARdelta fusion protein and thereby stimulate expression of the luciferase reporter gene. The luciferase which is formed can be detected by means of chemiluminescence via an appropriate substrate.
The production of the stable PPARdelta reporter cell line is based on a stable HEK-cell clone which was stably transfected with a luciferase reporter element. This step was already described above in the section “construction of the PPARalpha reporter cell line”. In a second step, the PPARdelta fusion protein (GR-GAL4-humanPPARdelta-LBD was stably introduced into this cell clone. For this purpose, the cDNA coding for the N-terminal 76 amino acids of the glucocorticoid receptor (Accession # P4150) was linked to the cDNA section coding for amino acids 1-147 of the yeast transcription factor GAL4 (Accession #P04386). The cDNA of the ligand-binding domain of the human PPARdelta receptor (amino acids S139-Y441; Accession # L07592) was cloned in at the 3′-end of this GR-GAL4 construct. The fusion construct prepared in this way (GR-GAL4-humanPPARdelta-LBD) was recloned into the plasmid pcDNA3 (Invitrogen) in order to enable constitutive expression by the cytomegalovirus promoter. This plasmid was linearized with a restriction endonuclease and stably transfected into the previously described cell clone containing the luciferase reporter element. The resulting PPARdelta reporter cell line which contains a luciferase reporter element and constitutively expresses the PPARdelta fusion protein (GR-GAL4-human PPARdelta-LBD) was isolated by selection with zeocin (0.5 mg/ml) and G418 (0.5 mg/ml).
The activity of PPARdelta agonists is determined in a 3-day assay in exact analogy to the procedure already described for the PPARalpha reporter cell line except that the PPARdelta reporter cell line and a specific PPARdelta agonist was used as a standard to control test efficacy.

human PPARalpha = target: T2, human PPARalpha (Homo sapiens, UniProt Q07869); assay: Cellular PPARalpha assay (HEK reporter cell line, luciferase); type: cell-based; details: PPARalpha reporter cell line (HEK, GR-GAL4-humanPPARalpha-LBD)
T2 construct: human PPARalpha receptor (amino acids S167-Y468); expressed in transfected cells; host or cells: HEK (human embryo kidney) cells, stably transfected; plasmid pcDNA3
T2 sequence (Q07869 167-468): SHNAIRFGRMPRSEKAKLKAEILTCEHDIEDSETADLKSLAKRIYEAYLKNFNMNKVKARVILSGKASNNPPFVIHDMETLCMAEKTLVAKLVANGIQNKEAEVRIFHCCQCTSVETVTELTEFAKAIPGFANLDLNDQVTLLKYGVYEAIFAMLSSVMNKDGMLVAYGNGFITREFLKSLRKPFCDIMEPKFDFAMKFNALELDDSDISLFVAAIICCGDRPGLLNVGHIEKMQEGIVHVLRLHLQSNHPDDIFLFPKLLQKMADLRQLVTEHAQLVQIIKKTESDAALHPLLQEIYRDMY
Method: The potency of substances which bind to human PPARalpha and activate it in an agonistic manner is analyzed using a stably transfected HEK cell line (HEK=human embryo kidney) which is referred to here as PPARalpha reporter cell line. It contains two genetic elements, a luciferase reporter element (pdeltaM-GAL4-Luc-Zeo) and a PPARalpha fusion protein (GR-GAL4-humanPPARalpha-LBD) which mediates expression of the luciferase reporter element depending on a PPARalpha ligand. The stably and constitutively expressed fusion protein GR-GAL4-humanPPARalpha-LBD binds in the cell nucleus of the PPARalpha reporter cell line via the GAL4 protein portion to the GAL4 DNA binding motifs 5′-upstream of the luciferase reporter element which is stably integrated in the genome of the cell line. There is only weak expression of the luciferase reporter gene in the absence of a PPARalpha ligand if fatty acid-depleted fetal calf serum (cs-FCS) is used in the assay. PPARalpha ligands bind and activate the PPARalpha fusion protein and thereby stimulate the expression of the luciferase reporter gene. The luciferase which is formed can be detected by means of chemiluminescence via an appropriate substrate.
The PPARalpha reporter cell line was prepared in two stages. […]
The activity of PPARalpha agonists is determined in a 3-day assay which is described below: […]

[1] = diabetic animal model; cited from earlier work
[2] = obese, insulin resistant rhesus monkeys, cited from earlier work
[3] = rhesus monkeys; cited from earlier work
[4] = cynomolgus monkeys; cited from earlier work
[5] = two weeks clinical trials in healthy volunteers; cited from earlier work

Molecule: 3-{2-Chloro-4-[4,4-dimethyl-6-(4-trifluoromethyl-phenyl)-3,4-dihydro-2H-quinolin-1-yl]-phenyl}-4H-[1,2,4]oxadiazol-5-one [Example 3]
EC50 (human PPARdelta): 3.3 nM

EC50 (human PPARdelta): 55 nM
Molecule: 3-{2-Chloro-4-[7-(4-trifluoromethyl-phenyl)-2,3-dihydro-pyrido[3,2-b][1,4]oxazin-4-yl]-phenyl}-4H-[1,2,4]oxadiazol-5-one [Example 8]

Molecule: 3-{4-[6-(4-Trifluoromethyl-phenyl)-3,4-dihydro-2H-quinolin-1-yl]-phenyl}-4H-[1,2,4]oxadiazol-5-one [Example 1]
EC50 (human PPARdelta): 2.3 nM

EC50 (human PPARdelta): 1.9 nM
Molecule: CC1(C)Cc2cc(-c3ccc(C(F)(F)F)cc3)ccc2N(c2ccc(-c3noc(=O)[nH]3)c(Cl)c2)C1 [Example 5, 3-{2-Chloro-4-[3,3-dimethyl-6-(4-trifluoromethyl-phenyl)-3,4-dihydro-2H-quinolin-1-yl]-phenyl}-4H-[1,2,4]oxadiazol-5-one]

EC50 (human PPARdelta): 530 nM
Molecule: O=c1[nH]c(-c2ccc(S(=O)(=O)N3CCNCc4cc(-c5ccc(C(F)(F)F)cc5)ccc43)cc2Cl)no1 [Example 12, 3-{2-Chloro-4-[7-(4-trifluoromethyl-phenyl)-2,3,4,5-tetrahydro-benzo[e][1,4]diazepine-1-sulfonyl]-phenyl}-4H-[1,2,4]oxadiazol-5-one]

EC50 (human PPARalpha): 505 nM
EC50 (human PPARdelta): 0.4 nM
Molecule: O=c1[nH]c(-c2ccc(S(=O)(=O)N3CCCc4nc(-c5ccc(C(F)(F)F)cc5)ccc43)cc2Cl)no1 [Example 13, 3-{2-Chloro-4-[6-(4-trifluoromethyl-phenyl)-3,4-dihydro-2H-[1,5]naphthyridine-1-sulfonyl]-phenyl}-4H-[1,2,4]oxadiazol-5-one]

Molecule: CCCc1c(OCCCOc2ccc(OCC(=O)O)cc2)ccc(C(C)=O)c1O [Example L-165041]
plasma cholesterol [1]: raises

Molecule: Cc1cc(SCc2sc(-c3ccc(C(F)(F)F)cc3)nc2C)ccc1OCC(=O)O [GW501516]
insulin levels ([2]; plasma): decreases
triglycerides ([2]; plasma): decreases
HDL-cholesterol [2]: raises
plasma LDL-cholesterol [2]: decreases

Molecule: CCCc1c(OCCCSc2nnc(SCC(=O)O)s2)ccc(C(C)=O)c1O [YM-16638]
plasma lipids [3]: significantly lowers
plasma lipids [4]: significantly lowers
plasma lipids [5]: acts in a similar manner
